Data as given in ChEMBL document CHEMBL5576124, “Discovery of an Exceptionally Orally Bioavailable and Potent HPK1 PROTAC with Enhancement of Antitumor Efficacy of Anti-PD-L1 Therapy” (J Med Chem, 2024).
Active and inactive are the calls of the source. The calls are words filed in the database; no cut-off is given here.

Columns and labels:
[1] = molecular target: Mitogen-activated protein kinase kinase kinase kinase 1 (Homo sapiens, UniProt Q92918); assay: Inhibition of HPK1 (unknown origin)
[2] = Metabolic stability in mouse liver microsomes assessed as hepatic extraction ratio; format: ADME, Microsome; conditions: read-out: ERH
Jurkat [3] = assay: Immunostimulatory activity in anti-CD3/CD28 induced human Jurkat cells assessed as increase in IFN-gamma release incubated for 24 hrs by ELISA; format: functional, cell-based
T-cell line [4] = assay: Immunostimulatory activity in human T cell assessed as increase in IL-2 secretion at 10 uM relative to control; format: functional
[5] = Tmax in Sprague-Dawley rat at 10 mg/kg,po measured upto 24 hrs by LC-MS analysis; format: ADME, organism-based; conditions: in vivo
CT26 [6] = assay: Antitumor activity against mouse CT26 cells implanted BALB/c mouse model assessed as tumor growth inhibition at 25 mg/kg,po administrated once daily for 15 days relative to control; format: functional; conditions: CT26, 360 h, time 15 day, read-out: TGI
[7] = Tmax in ICR mouse at 10 mg/kg,po measured upto 24 hrs by LC-MS analysis; format: ADME, organism-based; conditions: in vivo
[8] = Metabolic stability in human liver microsomes assessed as intrinsic clearance; format: ADME, Microsome; conditions: read-out: CLH
Jurkat [9] = assay: Immunostimulatory activity in anti-CD3/CD28 induced human Jurkat cells assessed as increase in IFN-gamma at 10 to 10000 nM incubated for 24 hrs in presence of PGE2 and NECA by ELISA; format: functional, cell-based; conditions: dose 10-10000 nM
Jurkat [10] = assay: Antiproliferative activity against human Jurkat cells assessed as inhibition of cell growth at 4 to 10000 nM incubated for 3 days by CCK-8 assay; format: functional, cell-based; conditions: dose 4-10000 nM, time 3.0 day
[11] = Stability in mouse liver microsomes assessed as parent compound remaining measured after 15 mins; format: ADME, Microsome; conditions: read-out: Stability
[12] = MRT in Sprague-Dawley rat at 10 mg/kg,po measured upto 24 hrs by LC-MS analysis; format: ADME, organism-based; conditions: in vivo
[13] = Metabolic stability in human liver microsomes assessed as microsomal intrinsic clearance; format: ADME, Microsome; conditions: read-out: CLH
[14] = Cmax in ICR mouse at 1 mg/kg,iv measured upto 24 hrs by LC-MS analysis; format: ADME, organism-based; conditions: in vivo
[15] = Bioavailability in ICR mouse at 10 mg/kg,po or 1 mg/kg,iv measured upto 24 hrs by LC-MS analysis; format: ADME, organism-based; conditions: in vivo
[16] = molecular target: T1, Protein cereblon/Mitogen-activated protein kinase kinase kinase kinase 1 (Homo sapiens, UniProt Q92918+Q96SW2); assay: PROTAC activity at CRBN/HPK1 in human Jurkat cells assessed as upregulation of GCK expression by Western blotting analysis; format: cell-based
Target sequence in this assay (Q92918 whole entry, looked up): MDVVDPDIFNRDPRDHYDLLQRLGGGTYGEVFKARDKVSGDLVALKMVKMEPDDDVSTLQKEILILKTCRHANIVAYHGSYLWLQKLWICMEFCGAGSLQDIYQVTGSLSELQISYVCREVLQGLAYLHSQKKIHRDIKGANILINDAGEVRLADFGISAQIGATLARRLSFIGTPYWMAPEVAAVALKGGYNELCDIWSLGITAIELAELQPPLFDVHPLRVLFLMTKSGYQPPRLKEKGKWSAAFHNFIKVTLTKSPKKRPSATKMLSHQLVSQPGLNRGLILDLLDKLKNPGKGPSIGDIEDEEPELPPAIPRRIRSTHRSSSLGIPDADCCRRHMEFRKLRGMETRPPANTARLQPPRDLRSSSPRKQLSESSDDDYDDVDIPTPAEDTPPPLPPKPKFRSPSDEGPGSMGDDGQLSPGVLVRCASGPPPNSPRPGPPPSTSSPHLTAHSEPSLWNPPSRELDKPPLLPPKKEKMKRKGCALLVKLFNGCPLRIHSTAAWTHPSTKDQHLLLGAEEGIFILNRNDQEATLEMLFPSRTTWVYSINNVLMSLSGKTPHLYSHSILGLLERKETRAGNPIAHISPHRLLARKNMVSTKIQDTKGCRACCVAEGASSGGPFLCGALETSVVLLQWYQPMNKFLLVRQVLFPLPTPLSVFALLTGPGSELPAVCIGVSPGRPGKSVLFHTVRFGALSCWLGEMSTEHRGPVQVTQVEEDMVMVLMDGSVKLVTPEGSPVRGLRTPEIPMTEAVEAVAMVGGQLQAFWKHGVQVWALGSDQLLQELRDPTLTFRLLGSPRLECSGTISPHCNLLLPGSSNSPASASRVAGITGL
Target sequence in this assay (Q96SW2 whole entry, looked up): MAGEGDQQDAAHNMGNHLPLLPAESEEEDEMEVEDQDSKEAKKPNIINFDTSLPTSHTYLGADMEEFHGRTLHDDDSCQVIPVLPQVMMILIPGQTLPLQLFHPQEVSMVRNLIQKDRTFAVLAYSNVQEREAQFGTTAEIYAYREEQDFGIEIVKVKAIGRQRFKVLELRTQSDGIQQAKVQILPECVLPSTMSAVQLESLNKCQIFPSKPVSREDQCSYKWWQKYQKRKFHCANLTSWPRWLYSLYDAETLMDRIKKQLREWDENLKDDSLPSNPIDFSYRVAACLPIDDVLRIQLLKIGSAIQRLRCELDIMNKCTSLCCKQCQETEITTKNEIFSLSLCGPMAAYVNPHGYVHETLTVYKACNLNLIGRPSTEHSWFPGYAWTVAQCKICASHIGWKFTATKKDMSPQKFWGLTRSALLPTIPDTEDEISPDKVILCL

[17] = AUC (0 to t) in Sprague-Dawley rat at 10 mg/kg,po measured upto 24 hrs by LC-MS analysis; format: ADME, organism-based; conditions: in vivo
[18] = molecular target: T1, Protein cereblon/Mitogen-activated protein kinase kinase kinase kinase 1; assay: PROTAC activity at CRBN/HPK1 in human Jurkat cells assessed as degradation of HPK1 protein at 1 uM preincubated with thalidomide followed by compound addition incubated for 24 hrs by Western blotting analysis; format: cell-based
Target sequence in this assay (Q92918 whole entry, looked up): as the sequence (Q92918 whole entry, looked up) above
Target sequence in this assay (Q96SW2 whole entry, looked up): as the sequence (Q96SW2 whole entry, looked up) above

[19] = molecular target: T1, Protein cereblon/Mitogen-activated protein kinase kinase kinase kinase 1; assay: PROTAC activity at CRBN/HPK1 in human Jurkat cells assessed as maximal degradation of HPK1 protein at 1 uM incubated for 24 hrs by Western blotting analysis relative to control; format: cell-based
Target sequence in this assay (Q92918 whole entry, looked up): as the sequence (Q92918 whole entry, looked up) above
Target sequence in this assay (Q96SW2 whole entry, looked up): as the sequence (Q96SW2 whole entry, looked up) above

[20] = Metabolic stability in mouse liver microsomes assessed as half life; format: ADME, Microsome
[21] = Stability in mouse liver microsomes assessed as parent compound remaining measured after 60 mins; format: ADME, Microsome; conditions: read-out: Stability
CT26 [22] = assay: Antitumor activity against mouse CT26 cells implanted BALB/c mouse model assessed as tumor growth inhibition at 25 mg/kg,po administrated once daily for 15 days in presence of anti-PD-L1 antibody relative to control; format: functional; conditions: CT26, 360 h, time 15 day, read-out: TGI
Jurkat [23] = assay: Immunostimulatory activity in anti-CD3/CD28 induced human Jurkat cells assessed as upregulation of ERK expression by Western blotting analysis; format: functional, cell-based
[24] = Stability in human liver microsomes assessed as parent compound remaining measured after 60 mins; format: ADME, Microsome; conditions: read-out: Stability
Jurkat [25] = assay: Immunostimulatory activity in anti-CD3/CD28 induced human Jurkat cells assessed as upregulation of JNK expression by Western blotting analysis; format: functional, cell-based
[26] = Stability in mouse liver microsomes assessed as parent compound remaining measured after 5 mins; format: ADME, Microsome; conditions: read-out: Stability
Jurkat [27] = assay: Immunostimulatory activity in anti-CD3/CD28 induced human Jurkat cells assessed as downregulation of SLP76 phosphorylation by Western blotting analysis; format: functional, cell-based
[28] = Half life in ICR mouse at 10 mg/kg,po measured upto 24 hrs by LC-MS analysis; format: ADME, organism-based; conditions: in vivo
[29] = AUC (0 to t) in ICR mouse at 1 mg/kg,iv measured upto 24 hrs by LC-MS analysis; format: ADME, organism-based; conditions: in vivo
[30] = Stability in human liver microsomes assessed as parent compound remaining; format: ADME, Microsome
[31] = molecular target: T1, Protein cereblon/Mitogen-activated protein kinase kinase kinase kinase 1; assay: PROTAC activity at CRBN/HPK1 in human Jurkat cells assessed as degradation of HPK1 protein incubated for 24 hrs by Western blotting analysis; format: cell-based
Target sequence in this assay (Q92918 whole entry): as the sequence (Q92918 whole entry, looked up) above
Target sequence in this assay (Q96SW2 whole entry): as the sequence (Q96SW2 whole entry, looked up) above

[32] = Stability in mouse liver microsomes assessed as parent compound remaining; format: ADME, Microsome
[33] = Stability in mouse liver microsomes assessed as parent compound remaining measured after 30 mins; format: ADME, Microsome; conditions: read-out: Stability
[34] = Stability in human liver microsomes assessed as parent compound remaining measured after 30 mins; format: ADME, Microsome; conditions: read-out: Stability
T-cell line [35] = assay: Immunostimulatory activity in human T cell assessed as increase in IL-2 secretion; format: functional, cell-based
[36] = Metabolic stability in mouse liver microsomes assessed as intrinsic clearance; format: ADME, Microsome; conditions: read-out: CLH

Mitogen-activated protein kinase kinase kinase kinase 1, sequence (Q92918 whole entry): as the sequence (Q92918 whole entry, looked up) above

IC50 [1]: 30.9 nM
hepatic extraction ratio [2]: 0.444
Tmax [5]: 1 h
Tmax [7]: 4 h
microsomal CLint [8]: 1.4 µL/min/mg
remaining at 0.25 h [11]: 85.5%
MRT [12]: 9.62 h
CLint scaled [13]: 5.54 mL/min/kg
Cmax [14]: 3000 ng/mL
bioavailability [15]: 81.7%
Activity [16]: inactive
AUC(0-t) at 24 h [17]: 16400 ng·h/mL
Activity [18]: Active
Activity [19]: 100%
half-life [20]: 1.25 h
remaining at 1 h [21]: 59.4%
remaining at 1 h [24]: 94.5%
remaining at 5 min [26]: 100%
half-life [28]: 4.33 h
AUC(0-t) at 24 h [29]: 16800 ng·h/mL
Stability [30]: 100%
DC50 [31]: 4.5 nM
Stability [32]: 100%
remaining at 0.5 h [33]: 70.3%
remaining at 0.5 h [34]: 98.3%
EC50 (T-cell line [35]): 12.9 nM
microsomal CLint [36]: 18.4 µL/min/mg
Compound: Cc1cc(-c2c[nH]c3ncc(-c4ccc(C5CCN(C6CN(c7ccc8c(c7)C(=O)N(C7CCC(=O)NC7=O)C8=O)C6)CC5)cc4)nc23)ccc1C(=O)N(C)C (stereo unspecified)
Activity (Jurkat [3]): Dose-Dependent Effect
Activity (T-cell line [4]): 2361.07%
inhibition in vivo at 25 mg/kg (CT26 [6]): 47.2%
Activity (Jurkat [9]): inactive
Activity (Jurkat [10]): inactive
inhibition in vivo at 25 mg/kg (CT26 [22]): 65.6%
Activity (Jurkat [23]): Active
Activity (Jurkat [25]): Active
Activity (Jurkat [27]): Active
